From patent publication US20250304952A1, “DNA ELEMENT RESPONSIVE TO EXTRACHROMOSOMAL DNA IN CANCER CELLS” (The Board of Trustees of the Leland Stanford Junior …, priority 2021, published 2025)

Experiments:
Format in all cases: cell-based, human
[1] = test system: ecDNA hubs in TetO-GFP COLO320-DM cells; test: Live cell imaging of TetR-eGFP-labeled ecDNAs through cell division; conditions: 500 nM JQ1
Excerpt: sgRNA was designed by E-CRISP (http://www.e-crisp.org/E-CRISP/designcrispr.html) targeting ˜0.5 kb upstream of MYC transcription start site or N-terminal BRD4 gene. The sgRNA was cloned into the modified pX330 (Addgene, Cat #42230) construct co-expressing wild type SpCas9 and a PGK-Venus cassette. ˜500 bp homology arms were PCR amplified from COLO320-DM cells and cloned into a pUC19 donor vector together with ˜96 copies of TetO array and a blasticidin selection cassette
(Addgene #118713) for ecDNA-TetO array or with HaloTag (Addgene #139747) for BRD4. 2 μg of the donor vector and 1 μg of the sgRNA vector were transfected into COLO320-DM cells by lipofectamine 3000. For ecDNA-TetO array, blasticidin (10 ug/ml) selection was applied after 7 days. For BRD4-HaloTag knock-in, 100 nM HaloTag ligand JF549 (a kind gift from Luke Lavis's lab at Janelia Research Campus) was applied to the cells followed by washing and FACS sorting. Individual clones were selected, genotyped by PCR and verified by Sanger sequencing before being tested for imaging. […]
To monitor ecDNA dynamics within the nucleus, the COLO320-DM TetO-eGFP cell line was transfected with the PiggyBac vector expressing H2B-SNAPf and the super PiggyBac transposase (2:1 ratio) as described previously51. […] TetO labeled ecDNA was similarly analyzed as described in previous DNA/RNA FISH section. […]

[2] = test system: MYC mRNA in COLO320-DM cells; test: MYC RNA measured by RT-qPCR in COLO320-DM; conditions: 500 nM, 6 hours
Protocol: (§1) Cells were then treated for 6 hours with 500 nM JQ1 in DMSO unless otherwise indicated (Sigma-Aldrich SML1524) or an equivalent volume of DMSO.
(§2) RNA was extracted using RNeasy Plus mini Kit (QIAGEN 74136). Purified RNA was quantified by Nanodrop (Thermo Fisher). For RT-qPCR, 50 ng of RNA, 1× Brilliant II qRT-PCR mastermix with 1 μL RT/RNase block (Agilent 600825), and 200 nM forward and reverse primer were used. Each Ct value was measured using Lightcycler 480 (Roche) and each mean dCt was averaged from duplicate qRT-PCR reaction and performed in biological triplicate. Relative MYC RNA level (RT-qPCR primers MYC_exon3_fw and MYC_exon3_rv) was calculated by ddCt method compared to 18S and GAPDH controls (RT-qPCR primers GAPDH_fw, GAPDH_rv, 18S_fw, 18S_rv). P values were calculated using a Student's t-test by comparing the relative fold change of biological triplicates.
(§3) Approximately 0.6×10^6 COLO320-DM or COLO-320-HSR cells were plated in 6 well plates and cultured under standard conditions for 24 hours. Cells were then treated for 6 hours with one of the following: 500 nM JQ1 (Sigma-Aldrich SML1524), 500 nM MS645 (Sigma Aldrich SML2549), 1 μM THZ-1 (Selleck chemicals S7549), 20 μM SGC-SCP30 (Selleck chemicals S7256), 10 μM OICR-9429 (Selleck chemicals S7833), 50 μM MI-3 (Selleck chemicals S7619), 2 μM trichostatin A (Selleck chemicals S1045), or DMSO. […]

[3] = test system: MYC mRNA in COLO320-HSR cells; test: MYC RNA measured by RT-qPCR in COLO320-HSR; conditions: 500 nM, 6 hours
Protocol: as §1, §2, §3

ecDNA+ COLO320-DM cells = test: PVT1 promoter-driven NanoLuc luciferase reporter in COLO320-DM; conditions: JQ1 500 nM, 6 hours
Excerpt: We constructed a plasmid containing the 2 kb PVT1 promoter (chr8: 128,804,981-128,806,980, hg19) or the MYC promoter (chr8: 128,745,990-128,748,526, hg19) driving NanoLuc luciferase (PVT1p-nLuc) and a constitutive thymidine kinase (TK) promoter driving Firefly luciferase as an internal control (FIG. 3b). Briefly, pGL4-tk-luc2 (Promega) was digested with KpnI and PciI. A sequence containing multiple cloning sites ([…]), NanoLuc and BGH polyA sequence were inserted in tandem into the vector using Gibson assembly (NEBuilder DNA assembly mix). Next, the PVT1 promoter or the MYC promoter was inserted into the vector via NheI and SalI digestion to generate the final reporter construct. For the negative control, a minimal promoter ([…]) was used in place of the PVT1 promoter. For constructing plasmids with a cis-enhancer, an enhancer (chr8: 128347148-128348310, hg19; positive H3K27ac mark and looping to the PVT1 promoter in HiChIP, overlapping with BRD4 ChIP peak and ATAC-seq peak in COLO320-DM) was inserted directly 5′ to the promoter into the region with multiple cloning sites. […] Luciferase levels were quantified using Nano-Glo Dual reporter luciferase assay (Promega). The reporter level was calculated as the ratio of NanoLuc reading over firefly reading using Tecan M1000. Mean and standard errors were calculated based on three biological replicates with three technical replicate each.

## Cc1sc2c(c1C)C(c1ccc(Cl)cc1)=N[C@@H](CC(=O)OC(C)(C)C)c1nnc(C)n1-2 [JQ1]
[1]
  ecDNA hub assembly following mitosis: blocked
[2]
  MYC mRNA level: preferentially lowered
[3]
  MYC mRNA level: no significant effect
ecDNA+ COLO320-DM cells
  repression of PVT1p-mediated transcription: ~5 fold
